Laboratory results from patent US7951779B2, “Method of protecting cells against damage and pharmaceutical composition comprising leumorphin” (Postech Academy-Industry Foundation, priority 2005, dated 2011).
Structures can show the parent of a compound that is named as a salt. Where two headings read alike, the source gives them in different places.

Columns and labels:
[1] = system: AKT and ERK; type: cell-based, rat
[2] = system: PC12 cells; test: MTT conversion assay of cell viability under serum deprivation; type: cell-based, rat
[3] = system: EGFR; test: EGFR tyrosine phosphorylation, immunoprecipitation and Western blot in PC12 cells; type: cell-based, rat; conditions: for effect on leumorphin-induced tyrosine phosphorylation of EGFR: preincubation 20 min: AG1478 1 μM, PP2 5 μM, naloxone or nor-BNI 1 μM, then leumorphin 1 μM 2 min
Description: Immunoprecipitation was performed as previously described (Daub et al., 1997). In brief, cells were washed with ice-cold PBS and lysed with lysis buffer (50 mM HEPES pH 7.5, 150 mM NaCl, 1% Triton X-100, 1 mM EDTA, 10% glycerol) containing protease inhibitors (0.5 mM PMSF, 1 μg/ml leupeptin and 5 μg/ml aprotinin) and phosphatase inhibitors (30 mM NaF, 1 mM Na3VO4 and 30 mM Na4O7P2). The cell lysates were incubated for 1 hr at 4° C. After centrifugation (12,000×g for 15 min), equal amounts of soluble extract were incubated for 4 hr, with 5 μg of anti-EGFR antibody and 30 μl of resin volume of immobilized protein G For gel electrophoresis, the precipitates were dissolved in Laemmli sample buffer.
FIGS. 5C and 5D, PC12 cells were stimulated with the indicated doses of leumorphin for 10 min (C) or with 1 μM of leumorphin for the indicated times (D). […] Cell lysates were subjected to Western blot analysis after immunoprecipitation with EGFR antibodies. Tyrosine-phosphorylated EGFRs were detected by immunoblotting with phosphotyrosine antibodies. The amounts of the precipitated EGFRs were monitored by reprobing the same blot with EGFR antibodies. […] In FIG. 5G, PC12 cells were preincubated with 1 μM AG1478 or 5 μM PP2 for 20 min and then stimulated with 1 μM leumorphin for 10 min. Phosphorylation of AKT and ERK was detected by Western blot analysis as in FIG. 4F. C-E,

[4] = system: PC12 cells; test: DNA ploidy analysis (FACS, sub-Go/Gl) in serum-deprived PC12 cells; type: cell-based, rat; conditions: 24 hr; for effect on the anti-apoptotic effect of leumorphin (sub-Go/Gl): antagonist 1 μM with leumorphin 1 μM
Description: Cells were suspended in PBS containing 5 mM EDTA and fixed in 100% ethanol. RNase A (50 μg/ml) was added to the suspended cells, and the cells were incubated at room temperature for 30 min. Propidium iodide (2 μg/ml) was added before reading. DNA contents of the cells were analyzed using a FACScan flow cytometer (Becton Dickinson, Franklin Lakes, N.J.), which was also used to determine the percentage of cells in the different phases of the cell cycle.
(§1) In FIG. 6A, Fragmentation of DNA in the nucleus was detected by a fluorescent TUNEL apoptosis assay. TUNEL stainings are shown in a-c, PI stainings are shown in d-f, and the merged images are presented in g-i. […] Each bar represents a fold increase of TUNEL-positive population of cells after treatment as indicated in serum-deprived condition versus those in serum-growing condition. In FIG. 6C, in order to analyze DNA ploidy, cells were fixed with ethanol, and FACS analysis was performed as described in “Materials and Methods”. In FIG. 6D, caspase-3 activity was measured by using a specific fluorogenic substrate of caspase-3 (Ac-DEVD -AMC) as described in “Materials and Methods”.

[5] = system: caspase-3; test: Caspase-3 enzymatic activity in PC12 cell lysates; type: cell-based, rat; conditions: 24 hr
Description: PC12 cell lysates were centrifuged at 1,000×g for 10 min. Equal amount of supernatant (20 μg protein) was diluted in buffer containing 100 mM Hepes, 10% sucrose, 5 mM dithiothreitol, […], and 0.1% CHAPS (pH 7.25), and was added to each well of a 96-well plate containing 50 μM DEVD-aminomethylcoumarin (AMC). After incubation at 37° C. for 1 hr, the cleaved free AMC was detected using a fluorospectrophotometer (excitation of 355 nm, emission of 460 nm).
as §1

[6] = biological target: T1, KOR (Rattus norvegicus, UniProt P34975); type: cell-based
T1 construct: confirming that the KOR ligands we used have proper activities and that functional KOR is expressed in PC12 cells; endogenous in cells; host or cells: PC12 (rat pheochromocytoma)
T1 sequence (P34975 whole entry): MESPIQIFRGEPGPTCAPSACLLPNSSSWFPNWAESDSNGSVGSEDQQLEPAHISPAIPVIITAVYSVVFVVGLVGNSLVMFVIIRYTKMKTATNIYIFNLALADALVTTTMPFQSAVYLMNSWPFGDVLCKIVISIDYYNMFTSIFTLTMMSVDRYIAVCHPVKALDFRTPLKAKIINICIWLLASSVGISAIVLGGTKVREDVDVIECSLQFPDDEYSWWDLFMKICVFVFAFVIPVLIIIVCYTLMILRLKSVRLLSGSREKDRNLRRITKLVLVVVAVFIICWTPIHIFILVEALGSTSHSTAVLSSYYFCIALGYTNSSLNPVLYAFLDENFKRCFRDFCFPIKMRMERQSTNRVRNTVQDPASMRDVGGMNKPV

[7] = system: PC12 cells; test: Competition binding assay of 125I-labeled leumorphin in PC12 cells; design: species or system rat
Description: Ligand binding analysis was performed as previously described (Bae et al., 2004). Briefly, PC12 cells were seeded at a density of 4×10^5 cells/well into a 12-well plate and cultured overnight. After incubating the cells in blocking buffer (33 mM HEPES (pH 7.5) and 0.1% BSA in RPMI 1640) for 2 hr, 25 pM of ^125I-labeled leumorphin dissolved in binding buffer (PBS containing 0.1% BSA) was added to the cells in the absence or presence of unlabeled ligands and incubated for 3 hr at 4° C. The samples were then washed five times with ice-cold binding buffer, and 500 μl of 1 N NaOH was added to each well. After 10 min at room temperature, the lysates were collected and counted using a gamma counter.
We investigated the possibility that leumorphin might have another binding site(s), in addition to the binding site for the KOR in PC12 cells. That is, an inhibition of [^125I]leumorphin binding in PC12 cells was investigated. PC12 cells were treated with various concentrations of unlabeled leumorphin, (−)-U-50488 and nor-BNI in the presence of ^125I-labeled leumorphin (25 pM) for 3 hr at 4° C. Specifically bound ^125I-labeled leumorphin was measured as described in “Materials and Methods”. For this purpose, we performed competition binding assay of ^125I-labeled leumorphin with unlabeled-agonists, leumorphin and (−)-U-50488, and an antagonist, nor-BNI.

[8] = system: PC12 cells; test: TUNEL apoptosis assay in serum-deprived PC12 cells; type: cell-based, rat; conditions: leumorphin 1 μM, 24 hr
Description: TUNEL assay was performed according to the manufactures' instruction (Promega Corp.). Briefly, cells on coverslips were fixed with 4% paraformaldehyde for 30 min after stimulation, washed with PBS, permeabilized with 0.2% Triton X-100 for 5 min, rinsed with PBS, and were incubated with 25 μL TUNEL reaction mixture (containing enzyme, nucleotides, and fluorescein-dUTP) in a humidified atmosphere at 37° C. for 1 hr. To observe nuclear morphology, cells were counterstained with 2 μg/ml propidium iodide. Following these incubations, coverslips were rinsed with PBS three times and analyzed under conforcal microscopy We captured images which had at least 100 cells and used five different images from three independent experiments for statistic analysis.
It has been reported that in PC12 cells apoptosis can be induced by serum deprivation, which mimics the fluctuations in the supply of growth factors (Batistatou et al., 1993). […]
In FIG. 6A, Fragmentation of DNA in the nucleus was detected by a fluorescent TUNEL apoptosis assay. […] In FIG. 6D, caspase-3 activity was measured by using a specific fluorogenic substrate of caspase-3 (Ac-DEVD -AMC) as described in “Materials and Methods”.

[9] = system: AKT and ERK; test: AKT and ERK phosphorylation in HEK-293 cells that do not express the KOR; type: cell-based; conditions: data not shown

In the case of dynorphin, the “phosphorylation of AKT and ERK” value [1] is reported as “none of these effects were elicited” and the “cell viability (MTT conversion, percentage of surviving cells)” value [2] is reported as “did not have any significant effect on cell viability”.
With “D-Phe-Cys-Tyr-D-Trp-Om-Thr-Pen-Thr-NH2 [CTOP]” the “effect on leumorphin-induced enhancement of cell viability” value (from here on “effect on leumorphin-induced enhancement”) [2] was “failed to attenuate” and the “effect on leumorphin-induced increase in cell viability at higher concentration” value (shortened to “effect on leumorphin-induced increase”) [2] was “failed to attenuate”.
`COc1cccc(-c2cc(=O)c3ccccc3o2)c1N` [PD98059, [2′-amino-3′-methoxyflavone] was tested, and the “effect of kinase inhibitor on leumorphin-induced enhancement of cell viability” value (shortened to “effect of kinase inhibitor”) [2] was “attenuated”.
For `C=CCN1CC[C@]23c4c5ccc(O)c4O[C@H]2C(=O)CC[C@@]3(O)[C@H]1C5` [naloxone], the “effect on leumorphin-induced phosphorylation of AKT and ERK” value [1] was “Neither of the antagonists, naloxone and nor-BNI, inhibited”, the “effect on the phosphorylation level of AKT and ERK when given alone” value (from here on “effect on the phosphorylation level”) [1] was “did not have any effects” and the “effect on leumorphin-induced enhancement” value [2] was “insensitive”. For the same compound, the “effect on leumorphin-induced tyrosine phosphorylation of EGFR” value (“effect … of EGFR” below) [3] was “neither nor-BNI nor naloxone exhibited any inhibitory effect” and the “effect on the anti-apoptotic effect of leumorphin (sub-Go/Gl)” value [4] was “failed to block”.
In the case of leumorphin, the “phosphorylation of AKT and ERK” value [1] is reported as “specifically induced phosphorylation of both AKT and ERK”, the “activity of caspase-3 elevated by serum-deprivation” value ([5]; leumorphin 1 μM) is reported as “decreased” and the “cell viability (MTT conversion, percentage of surviving cells)” value [2] is reported as “specifically enhanced”. For the same compound, the “dose- and time-dependence of enhancement of cell viability” value [2] was “dose-(FIG. 1D) and a time-dependent (FIG. 1E) manner”, the “effect on forskolin-induced increase of cAMP contents” value ([6]; agonist 1 μM, 10 min, Ro-20-1724 pretreatment) was “inhibitory effect” and the “tyrosine phosphorylation of EGFR” value ([3]; indicated doses for 10 min, 1 μM for indicated times) was “induced tyrosine phosphorylation of EGFR in dose- and time-dependent manner”. For the same compound, the “sub-Go/Gl area, indicative of the apoptotic population” value ([4]; leumorphin 1 μM, serum deprivation, 35.7±2.2% without leumorphin) was 25.8±1.8%, the “concentration up to which the inhibitory extent continued to increase” value [7] was 10 µM and the “replacement of labeled leumorphin” value [7] was “completely replaced”. The “population of TUNEL-positive cells increased by serum deprivation” value [8] was “significantly reduced” and the “phosphorylation of AKT and ERK in HEK-293 cells” value [9] was “specifically induced phosphorylation of AKT and ERK”.
With UFP-101 the “effect on leumorphin-induced phosphorylation of AKT and ERK” value [1] was “did not have any effect”.
With “β-neoendorphin (YGGFLRKYP; Beta-neoendorphin; UniProt P01213 175-183, looked up) [prodynorphin gene product, endogenous KOR ligand]” the “phosphorylation of AKT and ERK” value [1] was “none of these effects were elicited” and the “cell viability (MTT conversion, percentage of surviving cells)” value [2] was “none of these effects were elicited”.
`O=c1cc(N2CCOCC2)oc2c(-c3ccccc3)cccc12` [LY294002, [2-(4-morpholinyl)-8-phenyl-4H-1-benzopyran-4-one]] was tested, and the “effect of kinase inhibitor” value ([2]; inhibitor 5 μM (AG1478 1 μM) with leumorphin 1 μM, 24 hr) was “attenuated”.
In the case of “β-endorphin (YGGFMTSEKSQTPLVTLFKNAIIKNAYKKGE; Beta-endorphin; UniProt P01189 237-267, looked up) [an agonist of the ε-type receptor]”, the “phosphorylation of AKT and ERK” value [1] is reported as “neither AKT nor ERK was phosphorylated”.
For `Oc1ccc2c3c1O[C@H]1c4[nH]c5c(c4C[C@@]4(O)[C@@H](C2)N(CC2CC2)CC[C@]314)C[C@@]1(O)[C@H]2Cc3ccc(O)c4c3[C@@]1(CCN2CC1CC1)[C@H]5O4` [nor-BNI, nor-binaltorphimine dihydrochloride], the “effect on leumorphin-induced phosphorylation of AKT and ERK” value [1] was “Neither of the antagonists, naloxone and nor-BNI, inhibited”, the “effect on the phosphorylation level” value [1] was “did not have any effects” and the “effect on the inhibitory effect of leumorphin on caspase activity” value ([5]; nor-BNI 1 μM with leumorphin 1 μM) was “not blocked”. For the same compound, the “effect on leumorphin-induced enhancement” value [2] was “insensitive”, the “effect on leumorphin-induced increase” value [2] was “failed to attenuate” and the “effect on the inhibitory effect of leumorphin on forskolin-induced increase of cAMP content” value [6] was “reversed”. For the same compound, the “effect … of EGFR” value [3] was “neither nor-BNI nor naloxone exhibited any inhibitory effect”, the “effect on the anti-apoptotic effect of leumorphin (sub-Go/Gl)” value [4] was “failed to block” and the “concentration at which the inhibitory extent reached its maximum and was saturated” value ([7]; 25 pM 125I-labeled leumorphin, 3 hr, 4° C.) was 100 nM.
In the case of `Oc1ccc2c3c1O[C@H]1c4[nH]c5ccccc5c4C[C@@]4(O)[C@@H](C2)N(CC2CC2)CC[C@]314` [naltrindole], the “effect on leumorphin-induced enhancement” value [2] is reported as “failed to attenuate” and the “effect on leumorphin-induced increase” value [2] is reported as “failed to attenuate”.
In the case of pertussis toxin [PTX], the “effect on leumorphin-induced phosphorylation of AKT and ERK” value [1] is reported as “did not have any inhibitory effects”, the “effect on the phosphorylation level” value [1] is reported as “did not have any effects” and the “effect on leumorphin-induced enhancement” value [2] is reported as “unaffected”. The “effect on the inhibitory effect of leumorphin on forskolin-induced increase of cAMP content” value ([6]; naloxone or nor-BNI 1 μM, PTX 100 ng/ml 20 hr, leumorphin 1 μM) was “reversed”.
In the case of `N#CC(=C(/N)Sc1ccccc1N)/C(C#N)=C(\N)Sc1ccccc1N` [U0126], the “effect of kinase inhibitor” value [2] is reported as “attenuated”.
With `CC(C)(C)n1nc(-c2ccc(Cl)cc2)c2c(N)ncnc21` [PP2] the “effect on leumorphin-induced phosphorylation of AKT and ERK” value [1] was “significantly inhibited”, the “effect of kinase inhibitor” value [2] was “significantly inhibited” and the “effect … of EGFR” value [3] was “completely blocked to the basal level”.
`CS/C(N)=C(C#N)/C(C#N)=C(\N)SC` [U0124] was tested, and the “effect of kinase inhibitor” value [2] was “had no effect”.
For rimorphin, the “phosphorylation of AKT and ERK” value [1] was “none of these effects were elicited” and the “cell viability (MTT conversion, percentage of surviving cells)” value [2] was “none of these effects were elicited”.
